Laboratory results reported in US20240025862A1, “SUBSTITUTED N-PHENYLURACILS AND SALTS THEREOF, AND USE THEREOF AS HERBICIDAL ACTIVE SUBSTANCES” (Bayer Aktiengesellschaft, priority 2020, published 2024).

Assays:
Assay type in all cases: in vivo
[1] = test system: Echinochloa crus-galli (ECHCG); experiment: Post-emergence herbicidal action, greenhouse pot test (also comparative test C)
Procedure: (§1) Seeds of monocotyledonous and dicotyledonous weeds and crop plants were placed in sandy loam in plastic or wood-fiber pots, covered with soil and cultivated in a greenhouse under controlled growth conditions. 2 to 3 weeks after sowing, the test plants were treated at the one-leaf stage. The compounds of the invention, formulated in the form of wettable powders (WP) or as emulsion concentrates (EC), were then sprayed onto the green parts of the plants as aqueous suspension or emulsion with addition of 0.5% additive at a water application rate of 600 l/ha (converted). After the test plants had been kept in the greenhouse under optimum growth conditions for about 3 weeks, the activity of the preparations was rated visually in comparison to untreated controls. For example, 100% activity=the plants have died, 0% activity=like control plants.
(§2) Tables A1 to A14 below show the effects of selected compounds of the general formula (I) according to Tables I.1 to I.33 on various harmful plants and at an application rate corresponding to 20 g/ha and less, which were obtained by the experimental method specified above. The appendices “a”, “b” and “c” give differentiation by different dosage with otherwise the same harmful plants tested.
(§3) C. Comparative Herbicidal Action and Crop Plant Compatibility of Two Inventive Compounds (I.7-1 and I.7-115) with a Compound of Similar Structure Known from the Literature (WO2002/098227, a-17 and EP1106607, 3-14) in Post-Emergence Treatment.
(§4) Tables C1-C4 below show the effects of two inventive compounds (I.7-1 and I.7-115) together with a compound of similar structure known from the literature (a-17 in WO2002/098227, and 3-14 in EP1106607) in different crop plants at an application rate corresponding to 5 g/ha or less, which have been obtained by the aforementioned experimental procedure.

[2] = test system: Alopecurus myosuroides (ALOMY); experiment: as above; conditions: rated visually after about 3 weeks vs untreated controls, 100% = plants have died
Procedure: as §1, §2, §3, §4

Setaria viridis (SETVI) = experiment: as above; conditions: for Post-emergence action against SETVI: 20 g/ha
Procedure: as §1, §2, §3, §4

[3] = test system: Matricaria inodora (MATIN); experiment: as above
Procedure: as §1, §2, §3, §4

Viola tricolor (VIOTR) = experiment: Post-emergence herbicidal action, greenhouse pot test
Procedure: as §1, §2

Veronica persica (VERPE) = experiment: as above
Procedure: as §1, §2

[4] = test system: Abutilon theophrasti (ABUTH); experiment: as above; conditions: rated visually after about 3 weeks vs untreated controls, 100% = plants have died
Procedure: as §1, §2

[5] = test system: Polygonum convolvulus (POLCO); experiment: as above
Procedure: as §1, §2

[6] = test system: Pharbitis purpurea (PHBPU); experiment: as above
Procedure: as §1, §2

[7] = test system: Amaranthus retroflexus (AMARE); experiment: as above; conditions: rated visually after about 3 weeks vs untreated controls, 100% = plants have died
Procedure: as §1, §2

Oryza sativa (ORYSA) = experiment: Post-emergence crop plant compatibility, greenhouse pot test (also comparative test C); conditions: for Post-emergence action against ORYSA (crop plant compatibility): vs untreated controls
Procedure: as §1
(§5) The observed effects on selected crop plants are reported here in comparison to the untreated controls (values in %). The appendices “a”, “b” and “c” give differentiation by different dosage with otherwise the same crop plants tested.
as §3

Zea mays (ZEAMX) = experiment: Post-emergence crop plant compatibility, greenhouse pot test; conditions: 1.25 g/ha, vs untreated controls
Procedure: as §1, §5

[8] = test system: Triticum aestivum (TRZAS); experiment: as above; conditions: vs untreated controls
Procedure: as §1, §5

Avena fatua (AVEFA) = experiment: Post-emergence herbicidal action, greenhouse pot test; conditions: 20 g/ha, rated visually after about 3 weeks vs untreated controls, 100% = plants have died
Procedure: as §1, §2

Compound	Post-emergence action against ECHCG in % ([1]; dosage 5 g/ha)	Post-emergence action against ECHCG in % ([1]; dosage 20 g/ha)	Post-emergence action at 5 g/ha against ALOMY in % [2]	Post-emergence action at 20 g/ha against ALOMY in % [2]	Post-emergence action against SETVI (Setaria viridis (SETVI))	Post-emergence action against SETVI in % (Setaria viridis (SETVI); dosage 1.25 g/ha)	Post-emergence action against SETVI in % (Setaria viridis (SETVI); dosage 5 g/ha)	Post-emergence action against MATIN in % ([3]; dosage 5 g/ha)	Post-emergence action against MATIN in % ([3]; dosage 20 g/ha)	Post-emergence action against VIOTR (Viola tricolor (VIOTR); 1.25 g/ha)	Post-emergence action against VIOTR (Viola tricolor (VIOTR); 5 g/ha)	Post-emergence action against VIOTR (Viola tricolor (VIOTR); 20 g/ha)	Post-emergence action against VERPE (Veronica persica (VERPE); 1.25 g/ha)	Post-emergence action against VERPE (Veronica persica (VERPE); 5 g/ha)	Post-emergence action against VERPE (Veronica persica (VERPE); 20 g/ha)	Post-emergence action at 1.25 g/ha against ABUTH in % [4]	Post-emergence action at 5 g/ha against ABUTH in % [4]	Post-emergence action at 20 g/ha against ABUTH in % [4]	Post-emergence action against POLCO in % ([5]; dosage 5 g/ha)	Post-emergence action against POLCO in % ([5]; dosage 20 g/ha)	further results
Cn1c(C(F)(F)F)cc(=O)n(-c2cc(Oc3ccccc3OCC(=O)OCCC[N+](=O)[O-])c(Cl)cc2F)c1=O [I.7-339]	100%	100%	100%	100%	100%	100%	100%	100%	100%	100%	100%	100%	80%	100%	100%	90%	100%	100%	100%	100%	Post-emergence action against PHBPU in % ([6]; dosage 1.25 g/ha): 100%; Post-emergence action against PHBPU in % ([6]; dosage 5 g/ha): 100%; Post-emergence action against PHBPU in % ([6]; dosage 20 g/ha): 100%; Post-emergence action at 1.25 g/ha against AMARE in % [7]: 100%; Post-emergence action at 5 g/ha against AMARE in % [7]: 100%; Post-emergence action at 20 g/ha against AMARE in % [7]: 100%; Post-emergence action against ORYSA (crop plant compatibility) (Oryza sativa (ORYSA); 1.25 g/ha): 0%; Post-emergence action against ORYSA (crop plant compatibility) (Oryza sativa (ORYSA); 5 g/ha): 10%; Post-emergence action against ZEAMX (crop plant compatibility) (Zea mays (ZEAMX)): 20%; Post-emergence action against TRZAS (crop plant compatibility) ([8]; 1.25 g/ha): 0%; Post-emergence action against TRZAS (crop plant compatibility) ([8]; 5 g/ha): 20%
COCCOCCOC(=O)COc1ccccc1Oc1cc(-n2c(=O)cc(C(F)(F)F)n(C)c2=O)c(F)cc1Br [I.8-23]	100%	100%	80%	100%	100%	100%	100%	100%	100%	100%	100%	100%	80%	100%	100%	100%	100%	100%	100%	100%	Post-emergence action against PHBPU in % ([6]; dosage 1.25 g/ha): 100%; Post-emergence action against PHBPU in % ([6]; dosage 5 g/ha): 100%; Post-emergence action against PHBPU in % ([6]; dosage 20 g/ha): 100%; Post-emergence action at 20 g/ha against AVEFA in % (Avena fatua (AVEFA)): 80%; Post-emergence action at 1.25 g/ha against AMARE in % [7]: 100%; Post-emergence action at 5 g/ha against AMARE in % [7]: 100%; Post-emergence action at 20 g/ha against AMARE in % [7]: 100%; Post-emergence action against ORYSA (crop plant compatibility) (Oryza sativa (ORYSA); 1.25 g/ha): 0%; Post-emergence action against ORYSA (crop plant compatibility) (Oryza sativa (ORYSA); 5 g/ha): 0%; Post-emergence action against ORYSA in % (Oryza sativa (ORYSA); 20 g/ha, crop plant compatibility): 20%; Post-emergence action against TRZAS (crop plant compatibility) ([8]; 1.25 g/ha): 10%; Post-emergence action against TRZAS (crop plant compatibility) ([8]; 5 g/ha): 20%
